Data as given in patent US6300350A, “Treatment of emphysema using RARy selective retinoid agonists” (priority 2000, dated 2001).

Columns and labels:
[1] = Plasma triglyceride levels in rats; assay type: in vivo; settings: plasma, 1 mg/kg/PO daily for two weeks
Method: Experimental emphysema was induced in rats as described in Example 2. Three (3) weeks post injury animals were treated with vehicle (Capmul solution) or retinoids prepared in Capmul and dosed orally at 1, 3, and 10 mg/kg body weight. Animals were treated for 14 days prior to termination of study. Lung harvest and blood collection was performed as described in Example 2.
Quantitation of triglycerides contained in rat plasma was performed after using established procedures in a contact clinical laboratory facility. Briefly, plasma triglycerides were converted to dihdroxyacetone and H2 O2, by sequential treatment of plasma with lipase and glycerokinase according directions described by manufacturer of triglycerides/GPO kit (Boehringer Mannheim #1488872). H2 02 was quantitated calorimetrically in a Hitachi 911 Chemistry Analyzer. In rats normal triglyceride levels are 75-175 mg/dl.
Dosage was at 1 mg/kg/PO daily for two weeks. […] Therefore, it appears that RARα selective activity is linked to elevated triglyceride levels.

RARγ [2] = molecular target: T1, RARγ (Homo sapiens, UniProt P13631); assay: Binding, RARγ (ligand binding assay)
T1 sequence (P13631 1-454): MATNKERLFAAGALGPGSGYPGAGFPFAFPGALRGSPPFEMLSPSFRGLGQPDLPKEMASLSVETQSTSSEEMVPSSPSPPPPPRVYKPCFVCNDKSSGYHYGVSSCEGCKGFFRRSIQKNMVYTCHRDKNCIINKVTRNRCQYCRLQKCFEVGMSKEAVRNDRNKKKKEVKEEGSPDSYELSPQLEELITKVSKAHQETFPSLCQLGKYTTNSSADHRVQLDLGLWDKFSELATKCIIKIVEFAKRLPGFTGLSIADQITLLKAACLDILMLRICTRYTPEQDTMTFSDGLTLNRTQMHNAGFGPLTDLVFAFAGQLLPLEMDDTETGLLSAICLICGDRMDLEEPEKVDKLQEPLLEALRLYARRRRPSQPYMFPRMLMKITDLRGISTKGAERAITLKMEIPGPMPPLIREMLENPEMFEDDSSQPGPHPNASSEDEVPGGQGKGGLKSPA
Source text: (§1) The RARγ agonist selectivity of a compound can be determined by routine ligand binding assays known to one of skill in the art such as described in C. Apfel et al., Proc. Nat.

RARα [3] = molecular target: T2, RARα (Homo sapiens, UniProt P10276); assay: Binding, RARα (ligand binding assay); settings: Table II
T2 sequence (P10276 1-462): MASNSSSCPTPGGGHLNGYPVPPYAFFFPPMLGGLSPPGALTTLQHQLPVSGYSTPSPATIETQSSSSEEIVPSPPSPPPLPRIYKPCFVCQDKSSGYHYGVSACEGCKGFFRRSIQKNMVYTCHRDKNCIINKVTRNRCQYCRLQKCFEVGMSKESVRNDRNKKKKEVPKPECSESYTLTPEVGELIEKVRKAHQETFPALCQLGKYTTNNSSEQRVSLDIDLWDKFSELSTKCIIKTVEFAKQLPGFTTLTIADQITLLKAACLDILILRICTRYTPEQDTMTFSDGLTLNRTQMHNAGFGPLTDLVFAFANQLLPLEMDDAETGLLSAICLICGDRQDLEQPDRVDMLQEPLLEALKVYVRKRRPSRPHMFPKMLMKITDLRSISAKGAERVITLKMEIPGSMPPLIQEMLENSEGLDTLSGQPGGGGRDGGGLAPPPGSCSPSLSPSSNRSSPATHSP
Source text: as §1

experimental emphysema = assay: Alveolar repair in rat experimental emphysema, oral dosing; assay type: in vivo, rats; settings: 1 mg/kg/PO daily for two weeks
Method: Three (3) weeks post injury animals were treated with vehicle (Capmul solution) or retinoids prepared in Capmul and dosed orally at 1, 3, and 10 mg/kg body weight. Animals were treated for 14 days prior to termination of study.
Dosage was at 1 mg/kg/PO daily for two weeks.

RARβ = molecular target: T3, RARβ (Homo sapiens, UniProt P10826); assay: Transactivation, RARβ; assay type: cell-based; settings: Table II
T3 sequence (P10826 1-455): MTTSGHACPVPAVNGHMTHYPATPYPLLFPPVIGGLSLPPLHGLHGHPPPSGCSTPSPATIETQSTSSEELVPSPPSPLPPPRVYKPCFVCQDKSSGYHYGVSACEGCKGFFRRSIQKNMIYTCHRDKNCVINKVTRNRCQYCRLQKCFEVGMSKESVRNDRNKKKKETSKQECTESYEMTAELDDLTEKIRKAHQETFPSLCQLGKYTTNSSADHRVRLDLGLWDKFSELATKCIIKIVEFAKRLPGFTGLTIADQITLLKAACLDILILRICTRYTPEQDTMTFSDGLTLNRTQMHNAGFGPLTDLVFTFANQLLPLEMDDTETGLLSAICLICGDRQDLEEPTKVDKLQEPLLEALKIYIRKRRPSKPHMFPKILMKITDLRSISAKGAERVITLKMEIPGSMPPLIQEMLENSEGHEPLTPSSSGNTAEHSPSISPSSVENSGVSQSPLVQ
Source text: (§2) As used herein, the term "transactivation" refers to the ability of a retinoid to activate the transcription of a gene where the gene transcription is initiated by the binding of a ligand to the particular retinoic acid receptor being tested, i.e., RARα, RARβ, or RARγ. Determining the ability of a compound to transactivate a retinoic acid receptor may be performed by methods known to those of skill in the art. […] Apfel etal., Proc. Nat.

RARα [4] = molecular target: T2, RARα; assay: Transactivation, RARα; assay type: cell-based; settings: Table II
Source text: as §2

tropoelastin gene = assay: RAR transactivation of steady state tropoelastin gene in normal human lung fibroblasts (CCD-16Lu); assay type: cell-based
Method: Transactivation of the tropoelastin gene in normal human lung fibroblasts (CCD-16Lu) was performed as described below. Cells were grown to confluence at which time fresh media +/- ATRA or selective retiniod was added to the basal culture. ATRA and/or selective retiniods were used at a concentration of 1×10^-7 M. The cell layer was lysed using a guanidinium-based buffer (TRIZOL/Sigma) for RNA extraction and analysis. Amplification of tropoelastin and GAPDH RNA was performed by standard quantitative RT-PCR (TAQMAN, Perken/Elmer) using appropriate selective primers. Tropo-elastin gene expression was normalized to the expression of standard house-keeping gene (GAPDH).
Samples were run in triplicate.

RARγ [5] = molecular target: T1, RARγ; assay: Transactivation, RARγ; assay type: cell-based
Source text: as §2

- [Triglyceride] ([1]; normal rat 75-175 mg/dl): 92 mg/dL
- IC50 (RARγ [2]; Table II): 210 nM
- IC50 (RARγ [2]; Table III): 210 nM
- IC50 (RARα [3]): 2700 nM
- EC50 (RARβ): 88 nM
- EC50 (RARα [4]): 1000 nM
- EC50 (RARγ [5]; Table II): 15 nM
- EC50 (RARγ [5]; Table III): 15 nM
Structure (SMILES): CCCCCCc1cc2c(cc1/C=C/c1ccc(C(=O)O)cc1)C(C)(C)CCC2(C)C [RAR Agonist 3]
- triglyceride levels (in words) [1]: do not cause elevation in the triglyceride levels
- % Repair (experimental emphysema): 73.7%
- Tropo-elastin Expression (tropoelastin gene; CCD-16Lu, 1×10^-7 M, RT-PCR, triplicate, untreated control 30.90): 68.58 (Elastin/GAPDH) × 10^5
- tropoelastin gene induction (in words) (tropoelastin gene; human lung fibroblasts, compared to the control): markedly induces tropoelastin gene induction
